Source: PubChem BioAssay (NCI)
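Assay format: 96-well plates, 48-hour exposure. GI50 is the concentration that inhibits growth by half. TGI marks complete inhibition of growth.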

Key:
Assay in all cases: DTP human tumour cell line panel, 48 h
[1] = tested on: NCI-H522 lung
[2] = tested on: ACHN renal
[3] = tested on: SK-OV-3 ovarian
[4] = tested on: RXF 393 renal
[5] = tested on: SK-MEL-28 melanoma
[6] = tested on: MALME-3M melanoma
[7] = tested on: BT-549 breast
[8] = tested on: SNB-75 CNS
[9] = tested on: SNB-19 CNS
[10] = tested on: HCT-116 colon
[11] = tested on: A549 NSCLC
[12] = tested on: NCI/ADR-RES ovarian
[13] = tested on: IGROV1 ovarian
[14] = tested on: MCF7 breast
[15] = tested on: HL-60(TB) leukemia
[16] = tested on: SF-295 CNS
[17] = tested on: UACC-257 melanoma
[18] = tested on: UO-31 renal
[19] = tested on: OVCAR-3 ovarian
[20] = tested on: M14 melanoma
[21] = tested on: SK-MEL-2 melanoma
[22] = tested on: HS 578T breast
[23] = tested on: T-47D breast
[24] = tested on: NCI-H23 lung
[25] = tested on: MDA-MB-231 breast
[26] = tested on: K-562 leukemia
[27] = tested on: COLO 205 colon
[28] = tested on: SF-268 CNS
[29] = tested on: HOP-92 NSCLC

For `C#CCn1cccc1CNc1ccc(OC)cc1`, the GI50 [1] was 41.6 µM, the TGI [1] was > 100 µM and the GI50 [2] was 97.2 µM. The TGI [2] was > 100 µM, the GI50 [3] was > 100 µM and the TGI [3] was > 100 µM. For the same molecule, the GI50 [4] was > 100 µM, the TGI [4] was > 100 µM and the GI50 [5] was > 100 µM. The TGI [5] was > 100 µM, the GI50 [6] was > 100 µM and the TGI [6] was > 100 µM. The GI50 [7] was 57 µM, the TGI [7] was > 100 µM and the GI50 [8] was > 100 µM. The TGI [8] was > 100 µM, the GI50 [9] was > 100 µM and the TGI [9] was > 100 µM. For the same molecule, the GI50 [10] was 75.7 µM, the TGI [10] was > 100 µM and the GI50 [11] was > 100 µM. The TGI [11] was > 100 µM, the GI50 [12] was > 100 µM and the TGI [12] was > 100 µM. The GI50 [13] was 53.7 µM, the TGI [13] was > 100 µM and the GI50 [14] was 79.6 µM. The TGI [14] was > 100 µM, the GI50 [15] was 34.6 µM and the TGI [15] was > 100 µM. For the same molecule, the GI50 [16] was > 100 µM, the TGI [16] was > 100 µM and the GI50 [17] was 45.5 µM. The TGI [17] was > 100 µM, the GI50 [18] was 39.1 µM and the TGI [18] was > 100 µM. For the same molecule, the GI50 [19] was 64.4 µM, the TGI [19] was > 100 µM and the GI50 [20] was 82 µM. For the same molecule, the TGI [20] was > 100 µM, the GI50 [21] was > 100 µM and the TGI [21] was > 100 µM. The GI50 [22] was > 100 µM, the TGI [22] was > 100 µM and the GI50 [23] was 37.8 µM. The TGI [23] was > 100 µM, the GI50 [24] was 46.4 µM and the TGI [24] was > 100 µM. For the same molecule, the GI50 [25] was > 100 µM, the TGI [25] was > 100 µM and the GI50 [26] was 44.6 µM. For the same molecule, the TGI [26] was > 100 µM, the GI50 [27] was > 100 µM and the TGI [27] was > 100 µM. The GI50 [28] was > 100 µM, the TGI [28] was > 100 µM and the GI50 [29] was 2.94 µM. For the same molecule, the TGI [29] was > 100 µM.
